In patent US20240400584A1, “COMPOUNDS AND METHODS FOR MODULATING SPLICING” (REMIX THERAPEUTICS INC., priority 2021, published 2024):

How the values were obtained:
Format in all cases: cell-based, human
HTT = test: Gene panel canonical junction qPCR assay, HTT CJ mRNA (Table 7); details: Homo sapiens, read-out: HTT CJ mRNA decrease IC50
Procedure, shortened: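 Treated K562 or A673 cells; measured CJ mRNA by cDNA synthesis and qPCR, 2^(−ΔΔCt) against housekeeper and DMSO. IC50 marks half-maximal CJ decrease.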

[1] = test system: HiBit-tagged HTT in K562 cells; test: HiBiT protein abundance assay, HTT; details: HiBiT-modified K562 cells, 24 hours, luminescence
Procedure: (§1) Compounds described herein were used to screen for effects on quantitative protein abundance using a HiBit assay system (Promega). Quantitative protein abundance was determined by measuring the protein levels of HiBit-tagged protein targets expressed in cell culture via luminescence using the Nano-Glo HiBiT Lytic Detection System, which uses a split complementation assay format to reconstitute NanoBiT enzyme to generate a luminescent signal. A protein abundance assay was developed such that endogenous protein targets could be modified with the HiBiT peptide tag and their abundance could be assessed after compound treatment. Briefly, K562 cell lines containing a HiBiT-modification were treated with various compounds described herein (e.g., compounds of Formulas (I)). After treatment for 24 hours, the protein abundance of a specific target was determined by measuring luminescence.
(§2) Cells were maintained in IMDM with 10% FBS. Before the assay, cells were diluted with […] growth media (IMDM+[…] media) and were seeded in a 384-well plate at a density of 10000 cells/well (for each cell line listed in Table 8). Each compound was prepared as a 10-point 3-fold serial dilution in DMSO with the top dose at a final concentration of 10 μM in the well. Unmodified K562 cells were added at the previously specified density with DMSO to serve as an assay baseline and positive control (PC) and DMSO only with the respective modified cell lines was added to the negative control (NC) columns. Final DMSO concentration was kept at or below 0.25% o. Treated cell plates were placed in an incubator at 37° C. with […] for 24 hours. After 24 hours, 25 μL of Complete HiBit Lytic reagent was added to each well at room temperature (e.g. one plate requiring 10 mL Lytic Buffer, 100 μL LgBiT Protein, 200 μL Lytic Substrate), shaken for 5 minutes at 600 RPM, then left to sit for 10 minutes for signal to stabilize before reading on a Spark Cyto plate reader (Tecan) with a 500 ms measurement time.
(§3) To determine compound effects on protein abundance of each target in Table 9, the percent response for each respective cell line was calculated at each compound concentration as follows:
(§4) For the normalized response at each concentration, a four-parameter logistical regression was fit to the data and the response was interpolated at the […] to determine a concentration for protein abundance at 50% o (IC50) the untreated control.

[2] = test system: HiBit-tagged MYB in K562 cells; test: HiBiT protein abundance assay, MYB; details: HiBiT-modified K562 cells, 24 hours, luminescence
Procedure: as §1, §2, §3, §4

Structure (SMILES) | IC50 (HTT) [µM] | IC50 [1] [µM] | IC50 [2] [µM]
Cc1ncc(-c2ccc3c(c2)COc2nc(N(C)[C@@H]4C[C@H]5CC[C@@H](C4)N5)ccc2-3)o1 [Compound 155] | < 0.1 | < 0.1 | 0.1 to 1
CN(c1ccc2c(n1)OCc1cc(-n3nccn3)ccc1-2)[C@@H]1C[C@H]2CC[C@@H](C1)N2 [Compound 151] | < 0.1 | < 0.1 | 0.1 to 1
CN(c1cnc2c(n1)OCc1cc(-c3cn[nH]c3)ccc1-2)[C@@H]1C[C@H]2CC[C@@H](C1)N2 [Compound 144] | 0.1 to 1 | < 0.1 | 0.1 to 1
Cc1cnc(-c2ccc3c(c2)COc2nc(N(C)[C@@H]4C[C@H]5CC[C@@H](C4)N5)ccc2-3)o1 [Compound 206] | 0.1 to 1 | < 0.1 | 0.1 to 1
Cc1[nH]ncc1-c1ccc2c(c1)COc1nc(N(C)[C@@H]3C[C@H]4CC[C@@H](C3)N4)ccc1-2 [Compound 154] | 0.1 to 1 | < 0.1 | 0.1 to 1
c1cnn(-c2ccc3c(c2)COc2nc(NC4CNC4)ccc2-3)c1 [Compound 166] | > 10 | 1 to 10 | 1 to 10
CC1(C)CC(Nc2ccc3c(n2)OCc2cc(-n4cccn4)ccc2-3)CC(C)(C)N1 [Compound 165] | 0.1 to 1 | < 0.1 | 0.1 to 1
CN(c1ccc2c(n1)CCOc1cc(-n3cccn3)ccc1-2)C1CC(C)(C)NC(C)(C)C1 [Compound 129] | > 10 | > 10 | > 10
CN(c1ccc2c(n1)COc1cc(-n3cccn3)ccc1-2)C1CC(C)(C)NC(C)(C)C1 [Compound 125] | > 10 | 1 to 10 | 0.1 to 1
COc1cc(-c2ccc3c(c2)COc2nc(N(C)[C@@H]4C[C@H]5CC[C@@H](C4)N5)ccc2-3)cnn1 [Compound 159] | < 0.1 | < 0.1 | < 0.1
CC1(C)CC(Nc2ccc3c(c2)COc2cc(-n4cccn4)ccc2-3)CC(C)(C)N1 [Compound 118] | > 10 | 1 to 10 | 1 to 10
CN(c1ccc2c(n1)COc1cc(-c3cn[nH]c3)ccc1-2)[C@@H]1C[C@H]2CC[C@@H](C1)N2 [Compound 121] | 0.1 to 1 | < 0.1 | 1 to 10
COc1cc(-c2ccc3c(c2)COc2nc(N4CCC(N(C)C5CCC5)C4)ccc2-3)cnn1 (centres unmarked) [Compound 307, N-cyclobutyl-1-[8-(6-methoxypyridazin-4-yl)-6H-isochromeno[3,4-b]pyridin-3-yl]-N-methylpyrrolidin-3-amine] | 0.1 to 1 | 0.1 to 1 | 0.1 to 1
CN(c1ccc2c(c1)CCOc1cc(-n3cccn3)ccc1-2)[C@@H]1C[C@H]2CC[C@@H](C1)N2 [Compound 113] | > 10 | > 10 | 1 to 10
CN(c1ccc2c(n1)OCc1cc(-c3ccc(=O)n(C)c3)ccc1-2)[C@@H]1C[C@H]2CC[C@@H](C1)N2 [Compound 158] | 0.1 to 1 | < 0.1 | 0.1 to 1
CN(c1ccc2c(c1)COc1cc(-n3cccn3)ccc1-2)C1CC(C)(C)NC(C)(C)C1 [Compound 117] | > 10 | 1 to 10 | 1 to 10
CN(c1ccc2c(n1)OCc1cc(-n3ccnc3)ccc1-2)[C@@H]1C[C@H]2CC[C@@H](C1)N2 [Compound 163] | < 0.1 | < 0.1 | < 0.1
CN(c1ccc2c(n1)OCc1cc(-c3cn[nH]c3)ccc1-2)[C@@H]1C[C@H]2CC[C@@H](C1)N2 [Compound 108] | < 0.1 | < 0.1 | < 0.1
Cc1cn(-c2ccc3c(c2)COc2nc(N(C)[C@@H]4C[C@H]5CC[C@@H](C4)N5)ccc2-3)cn1 [Compound 164] | < 0.1 | < 0.1 | 0.1 to 1
C[C@@H]1C[C@H](N(C)c2ccc3c(c2)OCc2cc(-c4cn[nH]c4)ccc2-3)CCN1 [Compound 101] | – | 1 to 10 | 1 to 10
